According to ChEMBL document CHEMBL4477199, “Design and synthesis of novel bicalutamide and enzalutamide derivatives as antiproliferative agents for the treatment of prostate cancer” (Eur J Med Chem, 2016):
pIC50: −log10 of the molar value.

Assays:
CWR22R [1] = assay: Antiproliferative activity against human 22Rv1 cells after 96 hrs by propidium iodide staining based fluorescence 2D monolayer assay; assay type: functional, cell-based; conditions: 22Rv1, 96 h
DU-145 [2] = assay: Antiproliferative activity against human DU145 cells after 96 hrs by propidium iodide staining based fluorescence 2D monolayer assay; assay type: functional, cell-based; conditions: DU-145, 96 h
LNCaP [3] = assay: Antiproliferative activity against human LNCAP cells after 96 hrs by propidium iodide staining based fluorescence 2D monolayer assay; assay type: functional, cell-based
VCaP [4] = assay: Antiproliferative activity against human VCaP cells after 96 hrs by propidium iodide staining based fluorescence 2D monolayer assay; assay type: functional, cell-based
LNCaP [5] = assay: Potency index, ratio of enzalutamide IC50 to compound IC50 for human LNCAP cells; assay type: functional
[6] = molecular target: T1, Androgen receptor (Rattus norvegicus) (UniProt P15207); assay: (§1) Antagonist activity at rat androgen receptor fused with DNA-binding domain of GAL4 expressed in AR-UAS-bla GripTite 293 cells assessed as inhibition of R1881-induced receptor activation preincubated for 30 mins followed by R1881 addition measured after 16 to 24 hrs by betalactamase reporter gene assay; assay type: cell-based
T1 sequence (whole entry): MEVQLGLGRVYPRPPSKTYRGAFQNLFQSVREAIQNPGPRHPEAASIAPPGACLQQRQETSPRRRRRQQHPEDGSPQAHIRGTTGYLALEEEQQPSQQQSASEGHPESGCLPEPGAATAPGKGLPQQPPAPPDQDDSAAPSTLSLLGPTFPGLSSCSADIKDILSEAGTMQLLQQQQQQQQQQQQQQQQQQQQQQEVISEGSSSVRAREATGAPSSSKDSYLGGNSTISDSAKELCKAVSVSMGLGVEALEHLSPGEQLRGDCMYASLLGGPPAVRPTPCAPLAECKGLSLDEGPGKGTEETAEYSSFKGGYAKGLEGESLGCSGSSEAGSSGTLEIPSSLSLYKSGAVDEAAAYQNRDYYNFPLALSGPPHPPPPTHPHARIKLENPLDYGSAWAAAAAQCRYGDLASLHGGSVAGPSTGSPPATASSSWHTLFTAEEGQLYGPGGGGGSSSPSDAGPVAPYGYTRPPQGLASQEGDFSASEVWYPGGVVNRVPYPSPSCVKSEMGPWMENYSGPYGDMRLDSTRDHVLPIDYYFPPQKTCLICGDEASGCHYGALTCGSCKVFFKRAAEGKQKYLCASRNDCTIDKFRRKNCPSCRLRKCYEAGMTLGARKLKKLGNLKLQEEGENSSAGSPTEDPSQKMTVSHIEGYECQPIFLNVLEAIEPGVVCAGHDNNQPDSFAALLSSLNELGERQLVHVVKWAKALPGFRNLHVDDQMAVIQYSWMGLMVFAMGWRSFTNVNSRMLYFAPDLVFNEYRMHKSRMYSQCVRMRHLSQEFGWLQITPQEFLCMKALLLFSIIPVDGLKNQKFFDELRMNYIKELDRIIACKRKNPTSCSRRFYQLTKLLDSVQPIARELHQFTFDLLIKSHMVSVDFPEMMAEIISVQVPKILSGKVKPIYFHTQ

Androgen receptor = molecular target: T2, Androgen receptor (Rattus norvegicus, UniProt P15207); assay: as §1; assay type: cell-based
T2 sequence (P15207 whole entry): T1 sequence (whole entry)

LNCaP [7] = assay: Antiproliferative activity against human LNCAP cells assessed as relative inhibition after 96 hrs by propidium iodide staining based fluorescence 2D monolayer assay; assay type: functional, cell-based
DU-145 [8] = assay: Antiproliferative activity against human DU145 cells assessed as relative inhibition after 96 hrs by propidium iodide staining based fluorescence 2D monolayer assay; assay type: functional, cell-based; conditions: DU-145, 96 h
CWR22R [9] = assay: Antiproliferative activity against human 22Rv1 cells assessed as relative inhibition after 96 hrs by propidium iodide staining based fluorescence 2D monolayer assay; assay type: functional, cell-based; conditions: 22Rv1, 96 h
VCaP [10] = assay: Antiproliferative activity against human VCaP cells assessed as relative inhibition after 96 hrs by propidium iodide staining based fluorescence 2D monolayer assay; assay type: functional, cell-based
[11] = 96 h
Description: Solubility in RPMI1640 culture medium at <30 uM incubated for 4 days by microscopic analysis

[12] = 33000 µM
Description: Solubility in 100% DMSO at 33 mM at -20 degC

CC1(C)C(=O)N(c2ccc(C(F)(F)F)cc2)C(=O)N1c1ccc([N+](=O)[O-])c(C(F)(F)F)c1
pIC50 (CWR22R [1]): ≤ 4.00
IC70 (CWR22R [1]): > 100 µM
pIC50 (DU-145 [2]): ≤ 4.00
IC70 (DU-145 [2]): > 100 µM
pIC50 (LNCaP [3]): 5.67
IC70 (LNCaP [3]): 9.64 µM
pIC50 (VCaP [4]): 4.14
IC70 (VCaP [4]): > 100 µM
Ratio IC50 (LNCaP [5]): <=5
inhibition [6]: Dose-dependent effect
pIC50 (Androgen receptor): 7.10
pIC50 (LNCaP [7]): 5.79
IC70 (LNCaP [7]): 7.89 µM
pIC50 (DU-145 [8]): < 4.00
IC70 (DU-145 [8]): > 100 µM
pIC50 (CWR22R [9]): 4.38
IC70 (CWR22R [9]): > 100 µM
pIC50 (VCaP [10]): 7.28
IC70 (VCaP [10]): 7.76 µM
solubility [11]: Soluble
solubility [12]: Soluble
